Test results reported in patent publication US12714698B2, “Compositions and methods for treating or preventing dermal disorders” (Drexel University, priority 2015, dated 2026).
Entries after “also recorded” stand apart in the source; their conditions may differ.

Experiments:
Lung fibroblasts = experiment: Senescence markers in lung fibroblasts exposed to NRTIs; format: cell-based, human
Procedure: (§1) Cell culture experiments utilizing NRTIs were of the following design. Cultures of either human lung or cardiac fibroblasts were cultivated according to standard culture protocols for these cells (Cristofalo, et al., Journal of Tissue Culture Methods 1980, 6:117-121). Parallel sets of cultures were maintained in normal growth media or in normal growth media with the addition of 1 nM rapamycin. Cultures were maintained with 1 nM rapamycin (Enzo Biologicals) for two weeks before exposure to NRTIs. Cell cultures were exposed to NRTIs at indicated concentrations in individual experiments (generally 10-20 μg/ml) for 7 days, with a change of media and fresh NRTIs at day 4. Mitochondrial measurements, bioanalyzer measurements, immunoblotting for protein expression and phosphorylation status, and assays for senescence were performed at the end of this 7-day period.
Cell culture reagents were from Cellgro, unless indicated. WI-38 fetal-lung primary human fibroblasts or human cardiac fibroblasts were grown in MEM supplemented with 10% fetal bovine serum, 1% L-glutamine, MEM vitamins, and MEM non-essential amino acids. Cells were maintained in a 37° C. in 5% CO2 incubator. For treatment studies, cells were treated with 1 nM rapamycin (Enzo Biologicals) for two weeks before treatment with NRTIs. […]

[1] = system: seborrheic keratosis lesion; experiment: Topical treatment of a seborrheic keratosis lesion; format: in vivo, human; conditions: 21 days, 10 μM rapamycin in an emulsified gel preparation
Procedure: FIG. 20 is a photograph of a seborrheic keratosis lesion before and after 21 days of treatment with 10 μM rapamycin in an emulsified gel preparation as in FIG. 19.

[2] = system: human cardiac fibroblasts; experiment: Mitochondrial membrane potential, mass, superoxide and total ROS by flow cytometry; format: cell-based; conditions: cultures grown with 1 nM rapamycin, NRTIs 7 days
Procedure: as §1
Cell culture reagents were from Cellgro, unless indicated. WI-38 fetal-lung primary human fibroblasts or human cardiac fibroblasts were grown in MEM supplemented with 10% fetal bovine serum, 1% L-glutamine, MEM vitamins, and MEM non-essential amino acids. Cells were maintained in a 37° C. in 5% CO2 incubator. For treatment studies, cells were treated with 1 nM rapamycin (Enzo Biologicals) for two weeks before treatment with NRTIs. Cells were maintained by trypsinization and reseeding at a cell density of 1×10^4/cm^2 every 7 to 10 days. Emtricitabine (FTC) and tenofovir disoproxil fumarate (TDF) were kindly provided by the NIH AIDS Research & Reference Reagent program. During the 7-day exposure to the NRTIs, the pharmacologic inhibitors PD98059 (10 μM, Santa Cruz Biotechnologies), BI-D1870, GW5074, and SB203580 (10 μM, Enzo Biologicals) were added to the culture medium either during the final 48 hours or for the final 2 hours depending upon the experiment. During the 7-day exposure to NRTIs, Trolox (500 μM) and N-acetylcysteine (100 μM, Acros Organics) were added every other day. Mito-Q (20 nM) and TPP (20 nM) were kindly provided by Dr. Brett Kaufmann at the University of Pennsylvania School of Veterinary Medicine. Vector and mt-catalase adenoviruses (MOI's 25, 50, and 75) were purchased from Gene Transfer Vector Core from the University of Iowa.
Mitochondrial membrane potential was detected by incubating cells with 25 nM TMRE (Molecular Probes). Mitochondrial mass was evaluated by incubating the cells with 100 nM Mitotracker Green FM (Molecular Probes). Mitochondrial superoxide anion levels were detected by incubating the cells with 5 μM MitoSox Red (Molecular Probes). Total cellular levels of ROS were detected by incubating the cells with 10 μM 2′,7′-dichlorofluoroscein diacetate (DCF-DA; Sigma-Aldrich) in 1% fetal bovine serumsupplemented MEM and washing twice with Krebs Ringer phosphate glucose buffer (145 mM NaCl, 5.7 mM NaH2PO4, 4.86 mM KCL, 0.54 mM CaCl2), 1.22 mM MgSO4, and 5.5 mM glucose) following the incubation period. For the aforementioned assessments, incubation was performed at 37° C. in 5% CO2 for 30 minutes and cells were harvested in 2.5% trypsin-EDTA with serum-containing medium. Cells were immediately analyzed with a Guava EasyCyte Mini employing the Guava Express Plus program (Guava Technologies).

human fibroblasts = experiment: Long-term culture of human fibroblasts with or without rapamycin (lifespan, organization, p21 and IL-6 expression); format: cell-based
Procedure: FIG. 13 is a graph illustrating the finding that rapamycin treatment provides lifespan extension in human fibroblasts. Human fibroblast cells were growth in culture medium with or without rapamycin (1 nM). Cultures were split every 7 days and reseeded at identical cell number/cm^2 each week. The lifespan of normal human fibroblasts is counted by the number of times that the cells double.
FIG. 14 illustrates the finding that rapamycin preserves cell organization during aging of human fibroblasts. […] The ability to organize is a critical element of normal fibroblast function and contributes to tissue integrity in normal tissue. The disorganization which occurs with age contributes to functional decline.
FIG. 17 is a bar graph illustrating the finding that rapamycin prevents the expression of genes that cause senescence. The p21 gene makes a protein that is critical for senescence of human fibroblasts.
FIG. 18 is a bar graph illustrating the finding that rapamycin prevents the expression of genes related to inflammation. The IL-6 gene makes a protein that activates the immune system to recruit immune cells into an area of tissue damage.
as §1

[3] = system: dermal atrophy and actinic keratosis; experiment: Single site open label study, topical application in a patient; format: in vivo, human; conditions: 14 days of rapamycin treatment in an emulsified gel preparation, digital caliper
Procedure: In certain embodiments, dermal atrophy is evaluated by measurement of the dermal layer utilizing a calibrated digital caliper measurement of the dermal layer. In other embodiments, improvement in seborrheic keratosis, lentigines, pseudoscars, coarse wrinkles, and epidermal thickening is evaluated through an investigator evaluation rating scale of 1-4, in which 1 is normal with no sign of lesion; 2 represents minor lesions; 3 represents lesions that are distinct features relative to normal skin; and 4 represents lesions that are of high severity. […] In yet other embodiments, lesions are evaluated by area measurement using manual measurement of the lesion or through analysis of images taken by investigators or research study staff.
Patients presenting to a physician with a diagnosis of dermal atrophy, seborrheic keratosis, actinic keratosis, lentigines, senile pseudoscars, or coarse wrinkles were selected for administration of a composition of the invention. Dermal thickness was quantified using a Mitoutoyo digital caliper with certified accuracy to 0.001 mm. […]
A single site open label study was performed. A patient presenting with an area of dermal atrophy and actinic keratosis on the hand was evaluated for application of Formulation R. the contralateral hand with similar dermal thickness but no actinic keratosis was used as a control. […]

human lung fibroblasts = experiment: Mitochondrial respiration, Seahorse Bioanalyzer, lung fibroblasts; format: cell-based; conditions: rapamycin-treated lung fibroblasts
Procedure: Cell culture reagents were from Cellgro, unless indicated. […]
Mitochondrial function was measured using the XF cell mito stress test kit on a Seahorse XF24 Bioanalyzer (Seahorse Bioscience). […] Following acquisition, results were normalized based upon 10^6 cells counted using a Guava EasyCyte Mini (Millipore), where applicable. […] Mitochondrial respiration was calculated based upon oxygen consumption rate measurements in triplicates from cells seeded in at least quadruplicates. […]

[4] = cells grown in the presence of rapamycin

CO[C@H]1C[C@@H]2CC[C@@H](C)[C@@](O)(O2)C(=O)C(=O)N2CCCC[C@H]2C(=O)O[C@H]([C@H](C)C[C@@H]2CC[C@@H](O)[C@H](OC)C2)CC(=O)[C@H](C)/C=C(\C)[C@@H](O)[C@@H](OC)C(=O)[C@H](C)C[C@H](C)/C=C/C=C/C=C/1C [rapamycin]
effect of rapamycin treatment on NRTI-induced senescence markers (Lung fibroblasts): protection
severity of seborrheic keratosis lesion, visual inspection [1]: significant reduction in severity
mitochondrial ROS following exposure to NRTIs [2]: did not exhibit the same level of increase
mitochondrial membrane potential following exposure to NRTIs [2]: did not exhibit the same level of increase
total cellular ROS following exposure to NRTIs [2]: did not exhibit the same level of increase
IL-6 expression as cells age (human fibroblasts; [4]): do not produce IL-6
p21 expression as cells age (human fibroblasts; [4]): do not produce p21
cell organization during aging (human fibroblasts; low doses of rapamycin): maintained an orderly growth pattern
replicative lifespan (number of times that the cells double) (human fibroblasts; rapamycin 1 nM in culture medium): extend replicative lifespan; also recorded: well beyond the normal lifespan
dermal thickness in atrophic skin [3]: increases dermal thickness
basal and maximal respiration, proton leak following exposure to NRTIs (human lung fibroblasts): no increase
